Results from the NIST ThermoML archive (doi:10.1021/je050460d).

Experiments:
[1] = xn = mol fraction of the nth substance listed; settings: 101 kPa, Liquid, x1 = 1; for viscosity: Capillary tube (Ostwald / Ubbelohde) method; for mass density: Vibrating tube method
[2] = 101.33 kPa, Liquid; for viscosity: Capillary tube (Ostwald / Ubbelohde) method; for mass density: Vibrating tube method
[3] = refractive index (Na D-line) (dimensionless); settings: 101.33 kPa, Liquid, Standard Abbe refractometry

O [water] + CCCCCCn1cc[n+](C)c1.[Cl-]
[1]
Settings	mass density [kg/m3]	viscosity [mPa·s]
298.15 K	–	0.895
313.15 K	–	0.658
328.15 K	985.68	0.519
343.15 K	977.75	0.419

CCCCCCCC[n+]1ccn(C)c1.[Cl-] [1-methyl-3-octylimidazolium chloride]
Settings	mass density, [2] [kg/m3]	refractive index, [3]	viscosity, [2] [mPa·s]
298.15 K	1008.82	1.50987	20883
303.15 K	1005.94	1.50838	–
308.15 K	1003.06	1.50689	–
313.15 K	1000.2	1.50543	4066
318.15 K	997.37	1.50396	–
323.15 K	994.5	1.5025	–
328.15 K	991.67	1.50103	1091
333.15 K	988.85	1.49956	–
338.15 K	986.04	1.4981	–
343.15 K	983.24	1.49664	387.2

CCCCCCn1cc[n+](C)c1.[Cl-] [1-hexyl-3-methylimidazolium chloride]
Settings	mass density, [2] [kg/m3]	refractive index, [3]	viscosity, [2] [mPa·s]
298.15 K	1039.67	1.5172	18089
303.15 K	1036.81	1.5158	–
308.15 K	1033.96	1.51437	–
313.15 K	1031.13	1.51294	3429
318.15 K	1028.3	1.51151	–
323.15 K	1025.49	1.51009	–
328.15 K	1022.69	1.50868	942.1
333.15 K	1019.89	1.50727	–
338.15 K	1017.11	1.50586	–
343.15 K	1014.32	1.50445	339.5

O [water] + CCCCCCCC[n+]1ccn(C)c1.[Cl-]
[1]
Settings	mass density [kg/m3]	viscosity [mPa·s]
298.15 K	–	0.9
313.15 K	–	0.66
328.15 K	985.68	0.52
343.15 K	977.75	0.42
